Results as given in ChEMBL document CHEMBL3817765, “Doxifluridine-conjugated 2-5A analog shows strong RNase L activation ability and tumor suppressive effect” (Bioorg Med Chem, 2016).
Active and inactive are the calls of the source. The calls are words filed in the database; no cut-off is given here.

Columns and labels:
[1] = molecular target: T1, 2-5A-dependent ribonuclease (Homo sapiens) (UniProt Q05823); test: Ratio of p5'A2'p5'A2'p5'A2'p5'A EC50 to compound EC50 for recombinant human RNase L activity
T1 sequence (whole entry): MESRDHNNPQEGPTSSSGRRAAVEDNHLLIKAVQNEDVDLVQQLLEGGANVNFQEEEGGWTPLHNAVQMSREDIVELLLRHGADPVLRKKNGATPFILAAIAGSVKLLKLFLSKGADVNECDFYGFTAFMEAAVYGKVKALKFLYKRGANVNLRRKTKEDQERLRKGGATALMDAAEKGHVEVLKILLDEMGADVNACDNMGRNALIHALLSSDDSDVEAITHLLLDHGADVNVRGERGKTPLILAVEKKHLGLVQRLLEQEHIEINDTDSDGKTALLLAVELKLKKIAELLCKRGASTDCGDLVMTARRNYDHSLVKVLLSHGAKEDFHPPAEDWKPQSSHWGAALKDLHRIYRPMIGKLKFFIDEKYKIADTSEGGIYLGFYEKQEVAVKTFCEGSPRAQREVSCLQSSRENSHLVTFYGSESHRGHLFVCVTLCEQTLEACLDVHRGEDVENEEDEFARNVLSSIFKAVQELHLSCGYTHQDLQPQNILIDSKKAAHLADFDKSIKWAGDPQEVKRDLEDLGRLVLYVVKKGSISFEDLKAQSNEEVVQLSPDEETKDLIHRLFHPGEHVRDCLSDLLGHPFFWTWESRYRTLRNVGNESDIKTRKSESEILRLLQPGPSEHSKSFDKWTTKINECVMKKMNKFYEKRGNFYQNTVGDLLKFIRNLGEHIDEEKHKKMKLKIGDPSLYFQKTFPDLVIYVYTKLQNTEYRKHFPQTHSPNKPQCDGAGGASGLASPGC

[2] = system: HeLa; test: Cytotoxicity against human HeLa cells assessed as cell growth at 1 uM after 6 to 24 hrs by counting chamber analysis relative to control; assay type: functional; conditions: read-out: Activity
[3] = system: HeLa; test: Cytotoxicity against human HeLa cells assessed as cell growth inhibition after 6 to 24 hrs by counting chamber analysis; assay type: functional, cell-based
[4] = Half life of the compound assessed as snake venom phosphodiesterase-mediated compound hydrolysis at 9 uM by HPLC analysis; assay type: ADME; conditions: serpentes
[5] = molecular target: T2, 2-5A-dependent ribonuclease (Homo sapiens, UniProt Q05823); test: Induction of recombinant human RNase L activity expressed in Escherichia coli using F-5'-r(C11U2C7)-3' as substrate by polyacrylamide gel electrophoresis
T2 sequence (Q05823 whole entry): T1 sequence (whole entry)

[6] = system: HeLa; test: Cytotoxicity against human HeLa cells assessed as cell growth inhibition at 0.1 to 1 uM after 6 to 24 hrs by counting chamber analysis; assay type: functional, cell-based

SMILES | Ratio EC50 [1] | EC50 ([5]; read-out: EC50) | further results
Cc1nc2c(N)ncnc2n1[C@@H]1O[C@H](COP(=O)(O)O[C@@H]2[C@H](O)[C@@H](COP(=O)(O)O[C@@H]3[C@H](O)[C@@H](COP(=O)(O)O[C@@H]4[C@H](O)[C@@H](C)O[C@H]4n4cc(F)c(=O)[nH]c4=O)O[C@H]3n3cnc4c(N)ncnc43)O[C@H]2n2cnc3c(N)ncnc32)[C@@H](O)[C@H]1O | 28.9 | 0.45 nM | growth at 1 µM [2]: 25%; growth inhibition (GI) [3]: Dose-dependent effect; half-life at 9 µM [4]: 9 min
Cc1nc2c(N)ncnc2n1[C@@H]1O[C@H](COP(=O)(O)O[C@@H]2[C@H](O)[C@@H](COP(=O)(O)O[C@@H]3[C@H](O)[C@@H](COP(=O)(O)O[C@H]4[C@@H](O)[C@H](n5ccc(=O)[nH]c5=O)O[C@@H]4CO)O[C@H]3n3cnc4c(N)ncnc43)O[C@H]2n2cnc3c(N)ncnc32)[C@@H](O)[C@H]1O | 0.1 | 134 nM | –
Nc1ncnc2c1ncn2[C@@H]1O[C@H](COP(=O)(O)O[C@@H]2[C@H](O)[C@@H](COP(=O)(O)O[C@@H]3[C@H](O)[C@@H](COP(=O)(O)O[C@@H]4[C@H](O)[C@@H](COP(=O)(O)O)O[C@H]4n4cnc5c(N)ncnc54)O[C@H]3n3cnc4c(N)ncnc43)O[C@H]2n2cnc3c(N)ncnc32)[C@@H](O)[C@H]1O | – | 12.9 nM | growth inhibition (GI) [6]: inactive; half-life at 9 µM [4]: 6.4 min
Cc1nc2c(N)ncnc2n1[C@@H]1O[C@H](COP(=O)(O)O[C@@H]2[C@H](O)[C@@H](COP(=O)(O)O[C@@H]3[C@H](O)[C@@H](COP(=O)(O)O[C@@H]4[C@H](O)[C@@H](CO)O[C@H]4n4ccc(=O)[nH]c4=O)O[C@H]3n3cnc4c(N)ncnc43)O[C@H]2n2cnc3c(N)ncnc32)[C@@H](O)[C@H]1O | 5.4 | 2.4 nM | –
Cc1nc2c(N)ncnc2n1[C@@H]1O[C@H](COP(=O)(O)O[C@@H]2[C@H](O)[C@@H](COP(=O)(O)O[C@@H]3[C@H](O)[C@@H](COP(=O)(O)O[C@@H]4[C@H](O)[C@@H](COP(=O)(O)O)O[C@H]4n4ccc(=O)[nH]c4=O)O[C@H]3n3cnc4c(N)ncnc43)O[C@H]2n2cnc3c(N)ncnc32)[C@@H](O)[C@H]1O | 4.8 | 2.7 nM | –
C[C@H]1O[C@@H](n2cc(F)c(=O)[nH]c2=O)[C@H](O)[C@@H]1O | – | – | growth inhibition (GI) [3]: Dose-dependent effect
Nc1ncnc2c1ncn2[C@@H]1O[C@H](COP(=O)(O)O[C@@H]2[C@H](O)[C@@H](COP(=O)(O)O[C@@H]3[C@H](O)[C@@H](COP(=O)(O)O[C@@H]4[C@H](O)[C@@H](CO)O[C@H]4n4cnc5c(N)ncnc54)O[C@H]3n3cnc4c(N)ncnc43)O[C@H]2n2cnc3c(N)ncnc32)[C@@H](O)[C@H]1O | – | – | EC50 [5]: Not Active
Nc1ncnc2c1ncn2[C@@H]1O[C@H](COP(=O)(O)O[C@@H]2[C@H](O)[C@@H](COP(=O)(O)O[C@@H]3[C@H](O)[C@@H](COP(=O)(O)O[C@@H]4[C@H](O)[C@@H](COP(=O)(O)O)O[C@H]4n4ccc(=O)[nH]c4=O)O[C@H]3n3cnc4c(N)ncnc43)O[C@H]2n2cnc3c(N)ncnc32)[C@@H](O)[C@H]1O | 0.15 | 84 nM | –

Further lines, with some results ahead:

Ratio EC50 [1] | EC50 ([5]; read-out: EC50) | SMILES | further results
5.6 | 2.3 nM | Cc1nc2c(N)ncnc2n1[C@@H]1O[C@H](COP(=O)(O)O[C@@H]2[C@H](O)[C@@H](COP(=O)(O)O[C@@H]3[C@H](O)[C@@H](COP(=O)(O)O[C@@H]4[C@H](O)[C@@H](CO)O[C@H]4n4cnc5c(N)ncnc54)O[C@H]3n3cnc4c(N)ncnc43)O[C@H]2n2cnc3c(N)ncnc32)[C@@H](O)[C@H]1O | –
0.64 | 20.3 nM | Cc1nc2c(N)ncnc2n1[C@@H]1O[C@H](COP(=O)(O)O[C@@H]2[C@H](O)[C@@H](COP(=O)(O)O[C@@H]3[C@H](O)[C@@H](COP(=O)(O)O[C@H]4[C@@H](O)[C@H](n5cnc6c(N)ncnc65)O[C@@H]4CO)O[C@H]3n3cnc4c(N)ncnc43)O[C@H]2n2cnc3c(N)ncnc32)[C@@H](O)[C@H]1O | –
